In brackets after ≈: the same amount, converted by molar mass. Residues, ends and D or L forms follow the SMILES beside them.

Data set [1] concerns Bacillus subtilis (ATCC 6633). The experiment in a line: microbe, parasite or virus in culture. The class given is cell-based. Conditions: ATCC 6633; read-out: Minimum inhibitory concentration (MIC). A digest of the protocol: (§1)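 Each strain was exposed to a two-fold dilution series of test compound, and the lowest inhibitory concentration was recorded. Triplicate experiments were averaged to give the MIC.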

Data set [2] concerns Escherichia coli (ATCC 25922). In words: microbe, parasite or virus in culture. The format is cell-based. Conditions: ATCC 25922; read-out: Minimum inhibitory concentration (MIC). A digest of the protocol:
as §1

In data set [3] the test system is Escherichia coli (ATCC 9637). In words: microbe, parasite or virus in culture. The class given is cell-based. Conditions: ATCC 9637; read-out: Minimum inhibitory concentration (MIC). A digest of the protocol: as §1
Data set [4] concerns Klebsiella pneumoniae (ATCC 27736). In words: microbe, parasite or virus in culture. The format is cell-based. To be noted: ATCC 27736; read-out: Minimum inhibitory concentration (MIC). A digest of the protocol:
as §1

In data set [5] the test system is Pseudomonas aeruginosa (ATCC BAA-427). In words: microbe, parasite or virus in culture. Conditions: ATCC BAA-427; read-out: Minimum inhibitory concentration (MIC). The format is cell-based. A digest of the protocol:
as §1

The subject of data set [6] is Staphylococcus aureus (ATCC 25923). In words: microbe, parasite or virus in culture. The class given is cell-based. Conditions: ATCC 25923; read-out: Minimum inhibitory concentration (MIC). A digest of the protocol:
as §1

In data set [7] the test system is Staphylococcus aureus (ATCC 29213). The experiment in a line: microbe, parasite or virus in culture. The class given is cell-based. Conditions: ATCC 29213; read-out: Minimum inhibitory concentration (MIC). A digest of the protocol:
as §1

Data set [8] concerns Staphylococcus aureus (ATCC 33592) Methicillin resistant Genatmicin resistant. The experiment in a line: microbe, parasite or virus in culture. The class given is cell-based. To be noted: ATCC 33592; read-out: Minimum inhibitory concentration (MIC). The procedure, abridged:
as §1

Data set [9] relates to Staphylococcus aureus (ATCC 700698 MRSA). In words: microbe, parasite or virus in culture. The format is cell-based. To be noted: ATCC 700698; read-out: Minimum inhibitory concentration (MIC). The procedure, abridged: as §1
Data set [10] concerns Staphylococcus aureus (ATCC 700699 MRSA). In words: microbe, parasite or virus in culture. The class given is cell-based. To be noted: ATCC 700699; read-out: Minimum inhibitory concentration (MIC). The procedure, abridged: as §1
Data set [11] concerns Candida albicans (ATCC 10231). The experiment in a line: microbe, parasite or virus in culture. The class given is cell-based. To be noted: ATCC 10231, 48 h; read-out: Minimum inhibitory concentration (MIC). The procedure:
(§2) The anti- fungal activity of peptides was performed according to the standard micro broth dilution technique as per NCCLS guidelines. These plates were incubated in a moist chamber at 35 °C, and an absorbance at 492 nm was recorded on a VersaMax microplate reader after 48 h for C. albicans ATCC 10231 and C. parapsilosis ATCC 22019 and 72 h for C. neoformans.

Data set [12] relates to Candida parapsilosis (ATCC 22019). The experiment in a line: microbe, parasite or virus in culture. The format is cell-based. Conditions: ATCC 22019, 48 h; read-out: Minimum inhibitory concentration (MIC). The protocol:
as §2

The next data set concerns Cryptococcus neoformans. The experiment in a line: microbe, parasite or virus in culture. The class given is cell-based. To be noted: 72 h; read-out: Minimum inhibitory concentration (MIC). The protocol: as §2
Another data set deals with E. coli ATCC 25922. In words: Synergy with conventional antibiotics, checkerboard titration. The class given is cell-based, Escherichia coli. The procedure, abridged: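 Checkerboard of 2-fold serial dilutions of peptide and antibiotic combined with log-phase bacteria, incubated 24 h at 37 °C. FIC index computed from combination versus single-agent MICs: <0.5 synergy, 0.5–1.0 additive, 1.0–4.0 indifferent, >4.0 antagonism.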

The subject of a further data set is BALB/c mice. In words: In vivo toxicity of peptide alone. Also noted: species or system mouse. Conditions: peptide alone 5 and 10 mgKg−1 i.p., seven days, five animals. The protocol: For survival assay, mice were challenged intraperitoneally with LPS at a lethal dose of 15 mgKg^−1 E. coli 0111:B4[5]. Control mice were injected with an equal volume of PBS. G13P-Chr-1 at a single dose of 5 mgKg^−1 was injected in the mice groups that were already administered with 15 mgKg^−1 of LPS. Each group contained five mice. The mortality of mice was monitored up to 7 days and weight change was monitored every day. The peptide G13P-Chr-1 only was also injected in two groups of mice at 5 mgKg^−1 and 10 mgKg^−1 to check any mortality in mice by peptide only treatment.

In data set [13] the test system is LPS-induced TNF-α, IL-6 and IFN-γ in serum of BALB/c mice. In words: In vivo inhibition of LPS mediated cytokine production. Also noted: species or system mouse. Conditions: LPS 10 mgKg−1 plus peptide 3 mgKg−1, 1, 2, 4, 6 h, ELISA, versus LPS only. The protocol:
Enzyme-linked immunosorbent assays (ELISAs) were carried out to estimate the amount of tumor necrosis factor alpha (TNF-α) and interleukin-1β (IL-1β) secreted by LPS-treated THP-1 cells in the presence of peptides after 4–6 h of incubation. The levels of these cytokines in the culture supernatant of untreated and LPS-treated cells were taken as the negative and positive respectively, to calculate the percent inhibition by the peptides. For RANTES estimation the peptide LPS incubation was kept up to 24 h. The experiments were repeated twice reported as percentage inhibition. The absorbance of LPS treated cell supernatant was taken as zero inhibition. Similar ELISAs were performed to estimate the amount of TNF-α IL-6 and IFN-γ secreted by BALB/c mouse blood, which was collected from the orbital sinus at different time points post LPS injection, by using enzyme-linked immunosorbent assay kits for mouse TNF-α (BD Biosciences), IL-6 (BD Biosciences) and IFN-γ (BD Biosciences).
All the mice were divided into three experimental groups. Except the control group which was injected with PBS only, the other two groups were challenged with E. coli O111: B4 LPS at 10 mgkg^−1 of body weight in the presence and in the absence of 3 mgkg^−1 peptide. Blood was collected 1, 2, 4 and 6 h post LPS and peptide injection by the retro-orbital bleeding of mice. […]
For orientation: In an ELISA, binding on a coated surface is turned into a signal by an enzyme label.

As to `CC[C@H](C)[C@H](NC(=O)[C@H](C)NC(=O)[C@H](CCCCN)NC(=O)[C@@H]1CCCN1C(=O)[C@H](C)NC(=O)[C@H](Cc1c[nH]cn1)NC(=O)[C@@H](NC(=O)[C@H](C)NC(=O)CNC(=O)[C@H](CCCCN)NC(=O)[C@@H](NC(=O)[C@H](CC(C)C)NC(=O)[C@H](Cc1c[nH]c2ccccc12)NC(=O)CNC(=O)[C@H](Cc1ccccc1)NC(=O)[C@@H](N)Cc1ccccc1)[C@@H](C)CC)[C@@H](C)CC)C(=O)N[C@@H](Cc1c[nH]cn1)C(=O)NCC(=O)N[C@@H](CC(C)C)C(=O)N[C@H](C(=O)N[C@@H](Cc1c[nH]cn1)C(=O)N[C@@H](CCCNC(=N)N)C(=O)N[C@@H](CCCNC(=N)N)C(=O)N[C@@H](CCCNC(=N)N)C(=O)N[C@@H](Cc1c[nH]cn1)C(N)=O)[C@@H](C)CC` [Peptide G13P-Chr-1] (H-FFGWLIKGAIHAPKAIHGLIHRRRH-NH2), the MIC in [1] is 3 µM (≈ 8.79 µg/mL); in data set [2], 5 µM (≈ 14.7 µg/mL); in data set [3], 3 µM (≈ 8.79 µg/mL); in [4], 6.8 µM (≈ 19.9 µg/mL); in data set [5], 6.8 µM (≈ 19.9 µg/mL); in data set [6], 3 µM (≈ 8.79 µg/mL). The MIC in data set [7] is recorded as 1.6 µM (≈ 4.69 µg/mL); in data set [8] it was 1.6 µM (≈ 4.69 µg/mL); in [9], 3 µM (≈ 8.79 µg/mL); in [10] it was 1.6 µM (≈ 4.69 µg/mL); in data set [11] it was 13.6 µM (≈ 39.9 µg/mL); in data set [12], 6.8 µM (≈ 19.9 µg/mL). In addition, in the data set with Cryptococcus neoformans, the MIC amounted to 13.6 µM (≈ 39.9 µg/mL). Moreover, the “interaction of peptide with chloramphenicol (by FICI)” value in the data set on E. coli ATCC 25922 was “synergy (FICI < 0.5 is considered to indicate synergy)”. The “survival of mice (in vivo cytotoxicity)” value in the data set on BALB/c mice came out at 100%. Further, the “LPS-induced production of TNF-α, IL-6 and IFN-γ in serum” value in [13] is listed as “significant reduction”.

The values above are taken from publication PMC5469811, “Identification of GXXXXG motif in Chrysophsin-1 and its implication in the design of analogs with cell-selective antimicrobial and anti-endotoxin activities” (Scientific Reports, 2017).
